According to patent publication US6110716A, “HIV integrase inhibitors” (Merck & Co., Inc., priority 1998, dated 2000):
pIC50: −log10 of the molar value.

Assays:
HIV-1 integrase = target: T1, HIV-1 integrase (Human immunodeficiency virus type 1 group M subtype B, UniProt P04585); test: HIV Integrase Substrate Cleavage (trimming of the 3' end of HIV long terminal repeat terminus by HIV-1 integrase); type: biochemical; conditions: inhibition of HIV integrase substrate cleavage; inhibitor 0.75 to 100 μM
T1 construct: HIV long terminal repeat terminus by HIV-1 integrase
Experimental: HIV Integrase Substrate Cleavage
An assay for trimming of the 3' and of HIV long terminal repeat terminus by HIV-1 integrase was conducted according to LaFemina, R. L. et al., J. Virol 10, 5624 (1991), herein incorporated by reference for these purposes. To assay inhibition of HIV integrase substrate cleavage, the reaction was conducted with inhibitor having various concentrations in the range of 0.75 to 100 μM.

HIV integrase = HIV integrase (Human immunodeficiency virus type 1 group M subtype B, UniProt P04585); test: Strand Transfer Assay for HIV Integrase (microtiter assay for ligation of processed donor (HIV) DNA to unspecific, nicked host DNA); type: biochemical; conditions: inhibition of strand transfer by HIV integrase; inhibitor 0.75 to 100 μM
Experimental: Strand Transfer Assay for HIV Integrase
A microtiter assay for ligation of processed donor (HIV) DNA to unspecific, nicked host DNA was conducted according to Hazuda, D. J. et al., Nucl. Acids, Res. 22, 1121 (1994), herein incorporated by reference for these purposes. To assay inhibition of such strand transfer by HIV integrase, the reaction was conducted with inhibition having various concentrations in the range of 0.75 to 100 μM. Representative results follow.

Row | Structure (SMILES) | pIC50 (HIV-1 integrase) | pIC50 (HIV integrase)
1 | Cc1oc2cc3c(-c4c(O)cc(O)c5c(O)c6c(cc45)O[C@@H](C)[C@@H](C)C6=O)c(O)cc(O)c3c(O)c2c(=O)c1C (relative stereo) [Compound D] | 6.00 | 5.40
2 | CC1Oc2cc3c(-c4c(O)cc(O)c5c(O)c6c(cc45)OC(C)C(C)C6=O)c(O)cc(O)c3c(O)c2OC(=O)C1C (single isomer, unassigned) [Compound C] | 5.52 | 5.05
3 | CC1Oc2cc3c(-c4c(O)cc(O)c5c(O)c6c(cc45)OC(C)C(C)C6=O)c(O)cc(O)c3c(O)c2C(=O)C1C (stereo not drawn) [Compound A] | 5.70 | 4.92
4 | COc1cc(O)c2c(OC)c3c(cc2c1-c1c(OC)cc(OC)c2c(OC)c4c(cc12)OC(C)C(C)C4=O)OC(C)C(C)C3=O (stereo not drawn) [Compound F] | 4.40 | 
5 | COc1cc(OC)c2c(OC)c3c(cc2c1-c1c(OC)cc(OC)c2c(OC)c4c(cc12)OC(C)C(C)C4=O)OC(C)C(C)C3=O (stereo not drawn) [Compound G] | 4.22 | 
6 | CC(=O)Oc1cc(OC(C)=O)c2c(OC(C)=O)c3c(cc2c1-c1c(OC(C)=O)cc(OC(C)=O)c2c(OC(C)=O)c4c(cc12)OC(C)C(C)C4=O)OC(C)C(C)C3=O (stereo not drawn) [E] | 4.30 | 
